Experimental data from US9493466B2, “Treatment of cancer with TOR kinase inhibitors” (Signal Pharmaceuticals, LLC, priority 2011, dated 2016).

Columns and labels:
NCI-H2228 = assay: Cell viability assay for NSCLC lines; assay type: cell-based, human; details: NCI-H2228, 3 days
Protocol: (§1) Cell Viability Assay for NSCLC Lines. Cell viability was assessed using the Cell Titer-Glo Luminescent Cell Viability from Promega. The assay is a homogenous method of determining the number of viable cells in culture based on quantitation of the adenosine triphosphate (ATP) present, an indicator of metabolically active cells. The homogenous assay procedure involves adding the single reagent (CellTiter-Glo Reagent) directly to cells cultured in serum-supplemented medium. Cells were plated into a 96-well flat bottom plate (Costar Catalog Number 33595) at densities that were previously optimized for each cell line. The cells were incubated overnight in 5% CO2 at 37° C. The following day, compound dilutions were prepared and all concentrations were assayed in triplicate. The cells were incubated with Compound 1 (0.03 μM, 0.1 μM, 0.3 μM, 1 μM, 3 μM, 10 μM and 30 μM for NSCLC cells) in 5% CO2 at 37° C. for 3 days. After a 3-day incubation period, 100 μL of CellTiter-Glo reagent was added to each well for 2 minutes with shaking and further incubated for 10 minutes (no shaking) at room temperature to stabilize the signal. The luminescence was measured on the VICTOR X2 multilabel plate reader. The percent growth inhibition was calculated using the DMSO control in the same plate (no compound) response as 100% cell growth. The average values from triplicates were plotted to obtain IC50 values using software XLfit from IDBS. The formula used for determining IC50 in XLfit was model number 205, which utilizes a 4 Parameter Logistic Model or Sigmoidal Dose-Response Model to calculate the IC50 values. All IC50 values are reported as an average from either two independent experiments or a single experiment.

NCI-H838 = assay: Cell viability assay for NSCLC lines; assay type: cell-based, human; details: NCI-H838, 3 days
Protocol: as §1

NCI-H1568 = assay: Cell viability assay for NSCLC lines; assay type: cell-based, human; details: NCI-H1568, 3 days
Protocol: as §1

NCI-H596 = assay: Cell viability assay for NSCLC lines; assay type: cell-based, human; details: NCI-H596, 3 days
Protocol: as §1

NCI-H1792 = assay: Cell viability assay for NSCLC lines; assay type: cell-based, human; details: NCI-H1792, 3 days
Protocol: as §1

NCI-H1755 = assay: Cell viability assay for NSCLC lines; assay type: cell-based, human; details: NCI-H1755, 3 days
Protocol: as §1

NCI-H1395 = assay: Cell viability assay for NSCLC lines; assay type: cell-based, human; details: NCI-H1395, 3 days
Protocol: as §1

[1] = Storage stability of compound-spotted plates (repeat testing in A549); assay type: physicochemical; details: DMSO-spotted sealed 384-well plates at −20° C.
Protocol: Compound 1 was dissolved in dimethyl sulfoxide (DMSO) to prepare a 10 mM stock solution. A serial titration was performed to produce a working concentration range of […] to 10 mM. Aliquots to produce final concentrations of 1.5 nM to 10 μM were spotted via an acoustic dispenser (EDC ATS-100) into an empty 384-well plate. Compound 1 was spotted in a 10-point serial dilution fashion (3-fold dilution) in duplicate within the plate. The DMSO concentration was kept constant for a final assay concentration of 0.1% DMSO. Plates were replicated for use with different cell lines and testing periods. […] When ready for testing, plates were removed from the freezer, thawed, and unsealed just prior to the addition of the test cells. […] At the time when compound was added (t0), initial cell number was assessed via a viability assay (Cell Titer-Glo) by quantifying the level of luminescence generated by ATP present in viable cells. After 96 hours, cell viability of compound-treated cells was assessed via Cell Titer-Glo and luminescence measurement. […] The compound response against this control cell line was monitored closely to enable comparison of the data generated through the assay period. […] Results were then expressed as a GI50 value. […] In addition, the IC50 value of Compound 1 for each cell line was calculated.

CO[C@H]1CC[C@H](N2C(=O)CNc3ncc(-c4ccc(C(C)(C)O)nc4)nc32)CC1 [Compound 1, 7-(6-(2-hydroxypropan-2-yl)pyridin-3-yl)-1-((1r,4r)-4-methoxycyclohexyl)-3,4-dihydropyrazino-[2,3-b]pyrazin-2(1H)-one]
IC50 (NCI-H2228): 0.264 µM
IC50 (NCI-H838): 0.39 µM
IC50 (NCI-H1568): 0.226 µM
IC50 (NCI-H596): 2.2 µM
IC50 (NCI-H1792): 0.54 µM
IC50 (NCI-H1755): 3.03 µM
IC50 (NCI-H1395): 0.6 µM
stable under the storage conditions [1]: at least 1 month
